System: HCT116 cells
Experiment: Measurement of effect of inhibiting cancer cell proliferation (MTT)
Assay type: cell-based
Details: Homo sapiens, HCT-116, 100 uM, 48 hours, read-out: Cell Growth Inhibition (%) at 100 uM
Source text: HCT116 cells derived from human colorectal cancer (commercially available from the Korean Cell Line Bank) were used, and the effect of inhibiting cancer cell proliferation of the biguanide derivative was confirmed by measuring the concentration value (cell growth inhibition concentration, GIC50) at which cell growth was inhibited by 50% using a 3-(4,5-dimethylthiazol-2-yl)-2,5-[…] bromide (MTT) reagent.
First, HCT116 cells were put on a 96-well plate and cultured in a DMEM medium containing 10% fetal bovine serum for 16 hours so that the cellcount in each well was approximately 5,000. Subsequently, to obtain the GIC50 value of each compound, culture media were treated with 100 μM, 25 μM, 6.25 μM, 1.56 μM or 0.39 μM of the compound, and then cultured for 48 hours. At this time, some of the compounds were treated with 200 μM instead of 100 μM. Metformin hydrochloride was used as the control, and the culture media were treated with 25, 12.5, 2.5, 0.5, 0.1 mM metformin hydrochloride, and then tested in the same manner as described in the derivatives synthesized in the examples. In order to determine whether the cells survived after treatment with the compound, MTT was added to the culture media which were then cultured for another 3 hours. Formed formazane crystals were dissolved using dimethyl sulfoxide (DMSO), and the absorbance of the resulting solution was measured at 560 nm. After the 48-hours culture, the ratio of the cell count cultured on a well plate not treated with the compound to the living cell count on a well plate treated with the compounds synthesized in the examples was indicated as cell viability (%) according to each treated concentration. A cell viability curve graph was plotted and the concentration (GIC50) value of the compound at which the growth was inhibited by 50% was calculated to confirm the effect of inhibition of cancer cell proliferation. Also, the cell growth viability (%) when the concentration of the treated biguanide derivative and the metformin hydrochloride as the control were 100 uM was shown.

SMILES | inhibition at 100 µM
COc1ccc(CNC(=N)NC(=N)N2CCCCC2)cc1.Cl [Example 28, N1-piperidine-N5-(4-methoxy)benzyl biguanide hydrochloride] | 28.3%
Cl.N=C(NCc1ccc(F)cc1)NC(=N)N1CCCCC1 [Example 30, N1-piperidine-N5-(4-fluoro)benzyl biguanide hydrochloride] | 47%
Cl.N=C(NCc1ccc(Cl)cc1)NC(=N)N1CCCC1 [Example 31, N1-pyrrolidine-N5-(4-chloro)benzyl biguanide hydrochloride] | 65.9%
Cl.N=C(NCc1ccc(Cl)cc1)NC(=N)N1CCCCCC1 [Example 33, N1-azepane-N5-(4-chloro)benzyl biguanide hydrochloride] | 25.3%
Cl.N=C(NCc1ccc(Br)cc1)NC(=N)N1CCCC1 [Example 34, N1-pyrrolidine-N5-(4-bromo)benzyl biguanide hydrochloride] | 97.3%
Cl.N=C(NCc1ccc(Br)cc1)NC(=N)N1CCCCC1 [Example 35, N1-piperidine-N5-(4-bromo)benzyl biguanide hydrochloride] | 53.8%
Cl.N=C(NCc1cccc(C(F)(F)F)c1)NC(=N)N1CCOCC1 [Example 36, N1-morpholine-N5-(3-trifluoromethyl)benzyl biguanide hydrochloride] | 97.2%
Cl.N=C(NCc1ccc(C(F)(F)F)cc1)NC(=N)N1CCC1 [Example 37, N1-azetidine-N5-(4-trifluoromethyl)benzyl biguanide hydrochloride] | 23.5%
Cl.N=C(NCc1ccc(C(F)(F)F)cc1)NC(=N)N1CCCC1 [Example 38, N1-pyrrolidine-N5-(4-trifluoromethyl)benzyl biguanide hydrochloride] | 61.6%

Same assay, conditions: Homo sapiens, HCT-116, 48 hours

SMILES | GI50
COc1ccc(CNC(=N)NC(=N)N2CCCCC2)cc1.Cl [Example 28, N1-piperidine-N5-(4-methoxy)benzyl biguanide hydrochloride] | > 100 µM
Cl.N=C(NCc1ccc(Br)cc1)NC(=N)N1CCCC1 [Example 34, N1-pyrrolidine-N5-(4-bromo)benzyl biguanide hydrochloride] | 92.8 µM
Cl.N=C(NCc1cccc(C(F)(F)F)c1)NC(=N)N1CCOCC1 [Example 36, N1-morpholine-N5-(3-trifluoromethyl)benzyl biguanide hydrochloride] | > 100 µM
Cl.N=C(NCc1ccc(C(F)(F)F)cc1)NC(=N)N1CCC1 [Example 37, N1-azetidine-N5-(4-trifluoromethyl)benzyl biguanide hydrochloride] | 39.3 µM
Cl.N=C(NCc1ccc(C(F)(F)F)cc1)NC(=N)N1CCCC1 [Example 38, N1-pyrrolidine-N5-(4-trifluoromethyl)benzyl biguanide hydrochloride] | 32.4 µM

Second part, the compound after the results:

GI50 | SMILES
> 100 µM | Cl.N=C(NCc1ccc(F)cc1)NC(=N)N1CCCCC1 [Example 30, N1-piperidine-N5-(4-fluoro)benzyl biguanide hydrochloride]
17.6 µM | Cl.N=C(NCc1ccc(Cl)cc1)NC(=N)N1CCCC1 [Example 31, N1-pyrrolidine-N5-(4-chloro)benzyl biguanide hydrochloride]
4.9 µM | Cl.N=C(NCc1ccc(Cl)cc1)NC(=N)N1CCCCCC1 [Example 33, N1-azepane-N5-(4-chloro)benzyl biguanide hydrochloride]
23.2 µM | Cl.N=C(NCc1ccc(Br)cc1)NC(=N)N1CCCCC1 [Example 35, N1-piperidine-N5-(4-bromo)benzyl biguanide hydrochloride]

System: AMPKα
Experiment: Measurement of AMPK-activation effect (AMPKα Thr172 phosphorylation immunoassay in MCF7 cells)
Assay type: cell-based, human
Details: 10 uM, 24 hours, relative to untreated cells
Protocol: MCF7 cells derived from human breast cancer cells (commercially available from the Korean Cell Line Bank) were used, and the AMPK (5′-AMP-activated protein kinase alpha)-activation effect of the biguanide derivative was confirmed using an AMPKα immunoassay kit (Invitrogen, Catalog No. KH00651).
MCF7 cells were cultured in a DMEM medium supplemented with 10% fetal bovine serum. Thereafter, the cultured MCF7 cells were put into a 6-well plate with approximately 5×10^5 cells per well and cultured in an incubator supplied with 5% CO2. Culture media were treated with the derivatives synthesized in the examples at contents of 5, 10 and 50 μM, and then cultured for 24 hours. Metformin hydrochloride was used as the control, and the culture media were treated with 0.05, 0.5, 1, 2, 5 and 10 mM metformin hydrochloride, and then tested in the same manner as described in the derivatives synthesized in the examples. Subsequently, the cells were lysed according to a method presented in the operation manual of the AMPKα immunoassay kit, and 20 μg of a cell lysate was then yielded through protein assay. Thereafter, the AMPK activation effect was obtained by determining the degree of phosphorylation of 172nd threonine residue (Thr172) of the AMPKα from the cell lysate according to the method presented in the operation manual of the AMPKα immunoassay kit. […] A curve graph showing AMPK activation according to the concentration of the treated compounds was plotted based on the obtained AMPKα activation results, the concentration (activation concentration 150, AC150) value of the compound whose AMPK activation reached 150% was calculated using a GraphPad Prism 5.0 program, and the degrees of AMPK activation were obtained when concentrations of the treated biguanide derivatives were 10 μM and 50 μM and the metformin hydrochloride was 50 μM.

SMILES | AMPK activation effect 10 uM (%)
COc1ccc(CNC(=N)NC(=N)N2CCCCC2)cc1.Cl [Example 28, N1-piperidine-N5-(4-methoxy)benzyl biguanide hydrochloride] | 258%
Cl.N=C(NCc1ccc(F)cc1)NC(=N)N1CCCCC1 [Example 30, N1-piperidine-N5-(4-fluoro)benzyl biguanide hydrochloride] | 143%
Cl.N=C(NCc1ccc(Cl)cc1)NC(=N)N1CCCC1 [Example 31, N1-pyrrolidine-N5-(4-chloro)benzyl biguanide hydrochloride] | 304%
Cl.N=C(NCc1ccc(Br)cc1)NC(=N)N1CCCC1 [Example 34, N1-pyrrolidine-N5-(4-bromo)benzyl biguanide hydrochloride] | 467%
Cl.N=C(NCc1ccc(Br)cc1)NC(=N)N1CCCCC1 [Example 35, N1-piperidine-N5-(4-bromo)benzyl biguanide hydrochloride] | 140%
Cl.N=C(NCc1cccc(C(F)(F)F)c1)NC(=N)N1CCOCC1 [Example 36, N1-morpholine-N5-(3-trifluoromethyl)benzyl biguanide hydrochloride] | 516%
Cl.N=C(NCc1ccc(C(F)(F)F)cc1)NC(=N)N1CCC1 [Example 37, N1-azetidine-N5-(4-trifluoromethyl)benzyl biguanide hydrochloride] | 100%
Cl.N=C(NCc1ccc(C(F)(F)F)cc1)NC(=N)N1CCCC1 [Example 38, N1-pyrrolidine-N5-(4-trifluoromethyl)benzyl biguanide hydrochloride] | 116%

Same assay, conditions: 50 uM, 24 hours, relative to untreated cells

SMILES | AMPK activation effect 50 uM (%)
COc1ccc(CNC(=N)NC(=N)N2CCCCC2)cc1.Cl [Example 28, N1-piperidine-N5-(4-methoxy)benzyl biguanide hydrochloride] | 628%
Cl.N=C(NCc1ccc(F)cc1)NC(=N)N1CCCCC1 [Example 30, N1-piperidine-N5-(4-fluoro)benzyl biguanide hydrochloride] | 278%
Cl.N=C(NCc1ccc(Cl)cc1)NC(=N)N1CCCC1 [Example 31, N1-pyrrolidine-N5-(4-chloro)benzyl biguanide hydrochloride] | 776%
Cl.N=C(NCc1ccc(Cl)cc1)NC(=N)N1CCCCCC1 [Example 33, N1-azepane-N5-(4-chloro)benzyl biguanide hydrochloride] | 443%
Cl.N=C(NCc1ccc(Br)cc1)NC(=N)N1CCCC1 [Example 34, N1-pyrrolidine-N5-(4-bromo)benzyl biguanide hydrochloride] | 639%
Cl.N=C(NCc1ccc(Br)cc1)NC(=N)N1CCCCC1 [Example 35, N1-piperidine-N5-(4-bromo)benzyl biguanide hydrochloride] | 150%
Cl.N=C(NCc1cccc(C(F)(F)F)c1)NC(=N)N1CCOCC1 [Example 36, N1-morpholine-N5-(3-trifluoromethyl)benzyl biguanide hydrochloride] | 656%
Cl.N=C(NCc1ccc(C(F)(F)F)cc1)NC(=N)N1CCC1 [Example 37, N1-azetidine-N5-(4-trifluoromethyl)benzyl biguanide hydrochloride] | 107%
Cl.N=C(NCc1ccc(C(F)(F)F)cc1)NC(=N)N1CCCC1 [Example 38, N1-pyrrolidine-N5-(4-trifluoromethyl)benzyl biguanide hydrochloride] | 213%

Same assay, conditions: 24 hours

SMILES | AC150 (concentration at which AMPK activation reached 150%)
COc1ccc(CNC(=N)NC(=N)N2CCCCC2)cc1.Cl [Example 28, N1-piperidine-N5-(4-methoxy)benzyl biguanide hydrochloride] | 3.9 µM
Cl.N=C(NCc1ccc(F)cc1)NC(=N)N1CCCCC1 [Example 30, N1-piperidine-N5-(4-fluoro)benzyl biguanide hydrochloride] | 13.1 µM
Cl.N=C(NCc1ccc(Cl)cc1)NC(=N)N1CCCC1 [Example 31, N1-pyrrolidine-N5-(4-chloro)benzyl biguanide hydrochloride] | 2.3 µM
Cl.N=C(NCc1ccc(Cl)cc1)NC(=N)N1CCCCCC1 [Example 33, N1-azepane-N5-(4-chloro)benzyl biguanide hydrochloride] | 1.2 µM
Cl.N=C(NCc1ccc(Br)cc1)NC(=N)N1CCCC1 [Example 34, N1-pyrrolidine-N5-(4-bromo)benzyl biguanide hydrochloride] | 42.4 µM
Cl.N=C(NCc1ccc(Br)cc1)NC(=N)N1CCCCC1 [Example 35, N1-piperidine-N5-(4-bromo)benzyl biguanide hydrochloride] | 1.1 µM
Cl.N=C(NCc1cccc(C(F)(F)F)c1)NC(=N)N1CCOCC1 [Example 36, N1-morpholine-N5-(3-trifluoromethyl)benzyl biguanide hydrochloride] | >50 µM
Cl.N=C(NCc1ccc(C(F)(F)F)cc1)NC(=N)N1CCC1 [Example 37, N1-azetidine-N5-(4-trifluoromethyl)benzyl biguanide hydrochloride] | 24.2 µM
Cl.N=C(NCc1ccc(C(F)(F)F)cc1)NC(=N)N1CCCC1 [Example 38, N1-pyrrolidine-N5-(4-trifluoromethyl)benzyl biguanide hydrochloride] | 1.4 µM

System: not given
Experiment: not given
Details: not given

SMILES | melting point
COc1ccc(CNC(=N)NC(=N)N2CCCCC2)cc1.Cl [Example 28, N1-piperidine-N5-(4-methoxy)benzyl biguanide hydrochloride] | 213 to 214 °C
Cl.N=C(NCc1ccc(Br)cc1)NC(=N)N1CCCC1 [Example 34, N1-pyrrolidine-N5-(4-bromo)benzyl biguanide hydrochloride] | 267 to 268 °C
Cl.N=C(NCc1cccc(C(F)(F)F)c1)NC(=N)N1CCOCC1 [Example 36, N1-morpholine-N5-(3-trifluoromethyl)benzyl biguanide hydrochloride] | 211 to 212 °C
Cl.N=C(NCc1ccc(C(F)(F)F)cc1)NC(=N)N1CCC1 [Example 37, N1-azetidine-N5-(4-trifluoromethyl)benzyl biguanide hydrochloride] | 260 to 261 °C
Cl.N=C(NCc1ccc(C(F)(F)F)cc1)NC(=N)N1CCCC1 [Example 38, N1-pyrrolidine-N5-(4-trifluoromethyl)benzyl biguanide hydrochloride] | 268 to 270 °C

Continued, values first:

melting point | SMILES
250 to 251 °C | Cl.N=C(NCc1ccc(F)cc1)NC(=N)N1CCCCC1 [Example 30, N1-piperidine-N5-(4-fluoro)benzyl biguanide hydrochloride]
250 to 251 °C | Cl.N=C(NCc1ccc(Cl)cc1)NC(=N)N1CCCC1 [Example 31, N1-pyrrolidine-N5-(4-chloro)benzyl biguanide hydrochloride]
222 to 223 °C | Cl.N=C(NCc1ccc(Cl)cc1)NC(=N)N1CCCCCC1 [Example 33, N1-azepane-N5-(4-chloro)benzyl biguanide hydrochloride]
261 to 262 °C | Cl.N=C(NCc1ccc(Br)cc1)NC(=N)N1CCCCC1 [Example 35, N1-piperidine-N5-(4-bromo)benzyl biguanide hydrochloride]

Source: patent US9321742B2, “N1-cyclic amine-N5-substituted biguanide derivatives, methods of preparing the same and pharmaceutical composition comprising the same” (IMMUNOMET THERAPEUTICS INC., priority 2011, dated 2016)
